The assay deals with Fibroblast cells from the NIH3T3D4 cell line. Put plainly: In-vitro fibroblast cell growth in low serum (colourimetric cell number, Promega CellTiter), with or without potassium channel blockers. The class given is cell-based. To be noted: for Data (absorbance at 450 nM), cell number: 5 days, mean ± SD, 8 replicates. As to the method:
The assay described hereinbelow looks at the effect of an active on potentiation of cell growth in a low nutrient environment, ie at the effects of the active on cell growth factors which are mitogenic, rather than on the identification of an active which itself is mitogenic.
Glabranin (TimTec) was added in 50 μL of dimethylsulphoxide (DMSO) and vortexed to dissolve. […] of the glabranin in DMSO was added to Dulbeccos Minimum Essential Medium (DMEM) containing 2% v/v foetal calf serum (FCS) to give a 10 μg/mL glabranin solution. Serial dilutions were prepared using DMSO/DMEM/FCS as above. 1 mM minoxidil in DMSO/DMEM/FCS as above was used as a positive control. A DMSO control in DMEM containing 2% v/v FCS was also prepared.
Fibroblast cells from the NIH3T3D4 cell line (European collection of animal cell cultures, Health Protection Agency Porton Down, England) were cultured in DMEM media in the absence of antibiotics. The cells were removed using 10 mL of 0.25% w/w trypsin and 0.038% w/v EDTA in Hank's medium for 5 minutes, 10 mL DMEM containing 10% v/v FCS was added and the cells were spun down at 1000 rpm for 2 minutes. After removing the medium the cells were washed in 10 mL of DMEM containing 10% v/v FCS and spun at 1000 rpm for 2 minutes. The cells were then resuspended in 10 mL of DMEM containing 10% v/v FCS and counted using a cell counting chamber. A suspension of cells containing 5000 cells per 100 μL (50,000 cells per mL) was prepared and 100 μL of the cell suspension was plated out into a 96 well plate. The cells were allowed to adhere overnight in an incubator at 37 degrees centigrade in an atmosphere of 5% v/v CO2 in air. After washing the wells thrice with DMEM (without FCS), 100 μL of the test solution (containing […] glabranin per mL DMSO/DMEM/FCS with or without 10 μM glibenclamide (a potassium ion channel blocker) and 0.1 mM tetraethylammonium (TEA is a potassium ion channel blocker which directly binds to the channel) was added to each of eight wells. Fresh media containing glabranin was added every day for 5 days.
Cell numbers were determined after 5 days in test medium using a colourimetric method (Promega CellTiter Reagent from Promega). 20 μL Reagent was added to each well and the plate incubated as before for one hour.

This is an account of results in patent US20130096189A1, “USE OF GLABRANIN FOR STIMULATING HAIR GROWTH” (priority 2010, published 2013).

Molecules are shown by their SMILES.

As for `Nc1cc(N2CCCCC2)nc(N)[n+]1[O-]` [Minoxidil, reference compound], the “Data (absorbance at 450 nM), cell number” value (Minoxidil 75 μM in 2% FCS/DMSO) is reported as 0.36 ± 0.04.
In the case of `CC(C)=CCc1c(O)cc(O)c2c1O[C@H](c1ccccc1)CC2=O` [glabranin, (2S)-5,7-dihydroxy-8-(3-methylbut-2-enyl)-2-phenyl-2,3-dihydrochromen-4-one], the “Data (absorbance at 450 nM), cell number” value was found to be 0.34 ± 0.02 (glabranin 0.01 μg/ml in 2% FCS/DMSO), 0.34 ± 0.02 (glabranin 0.1 μg/ml in 2% FCS/DMSO) and 0.31 ± 0.02 (glabranin 1 μg/ml in 2% FCS/DMSO). For the same compound, the “potassium channel opening leading to fibroblast cell growth (conclusion from table 1)” value (growth increase reversed by potassium channel blockers) is recorded as “potassium channel opener”.
